Source: PMC7541396 (Nature biotechnology, 2020)

B1: PPE26: Mtb PPE protein, cell-free expressed (protein, UniProt Q79FK6 1-393, looked up)
PPE family protein PPE26: MDFGALPPEVNSVRMYAGPGSAPMVAAASAWNGLAAELSSAATGYETVITQLSSEGWLGPASAAMAEAVAPYVAWMSAAAAQAEQAATQARAAAAAFEAAFAATVPPPLIAANRASLMQLISTNVFGQNTSAIAAAEAQYGEMWAQDSAAMYAYAGSSASASAVTPFSTPPQIANPTAQGTQAAAVATAAGTAQSTLTEMITGLPNALQSLTSPLLQSSNGPLSWLWQILFGTPNFPTSISALLTDLQPYASFFYNTEGLPYFSIGMGNNFIQSAKTLGLIGSAAPAAVAAAGDAAKGLPGLGGMLGGGPVAAGLGNAASVGKLSVPPVWSGPLPGSVTPGAAPLPVSTVSAAPEAAPGSLLGGLPLAGAGGAGAGPRYGFRPTVMARPPFAG

Columns and labels:
TCR004 = assay type: cell-based, human; details: Supplementary Fig. 4b, n=3
TCR121 = assay: Mtb proteome screen and PPE protein stimulation with aAPC, TCR121; assay type: cell-based, human

Molecule	response of TCR004 to cell-free expressed protein (TCR004)	stimulation of TCR121 by whole PPE protein (TCR121)
CFP10: Mtb protein, cell-free expressed; TCR004 target	only responded to its target antigen CFP10	
B1		strong to modest stimulation
